From patent US11851391B2, “Antifungal compounds and methods of forming the same” (University of Kentucky Research Foundation, priority 2018, dated 2023)
Converted amounts (≈) assume the structure as drawn. Read-outs that look alike come from different tables or passages of the source.

Legend:
[1] = test system: Aspergillus flavus ATCC MYA-3631 (strain K); test: MIC determination against filamentous fungi (CLSI M38-A2); type: cell-based; conditions: MIC-0, 48 h at 35° C.
Summary of the method: (§1)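 Broth microdilution followed CLSI M38-A2 in RPMI 1640 buffered to pH 7.0 with 0.165 M MOPS. Spores were harvested from PDA cultures, counted by hemocytometer and added at 5×10^5 CFU/mL final, then incubated 48 h at 35° C. MIC was taken as complete growth inhibition versus growth control (MIC-0), run in triplicate.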

[2] = test system: Aspergillus terreus ATCC MYA-3633 (strain M); test: as above; type: cell-based; conditions: Aspergillus terreus, 48 h, MIC-0, 48 h at 35° C., read-out: MIC
Summary of the method: as §1

[3] = test system: Aspergillus nidulans ATCC 38163 (strain L); test: as above; type: cell-based; conditions: MIC-0, 48 h at 35° C.
Summary of the method: as §1

[4] = test system: C. albicans ATCC MYA-1003(R) (strain G); test: MIC determination, in vitro antifungal assay (CLSI M27-A3); type: cell-based, Candida albicans; conditions: MIC-0, 48 h at 35° C.
Summary of the method: (§2)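 A single colony was grown overnight in YPD broth at 35° C with shaking, set to OD600 0.12 in water, and diluted to 2-4×10^3 CFU/mL in MOPS-buffered RPMI 1640 (pH 7.0). MICs were then determined by the CLSI M27-A3 method at 35° C, keeping DMSO under 1.25%.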

[5] = test system: C. albicans ATCC MYA-2876(S) (strain C); test: as above; type: cell-based, Candida albicans; conditions: MIC-0, 48 h at 35° C.
Summary of the method: as §2

[6] = test system: murine red blood cells (mRBCs); conditions: for Percentage of hemolysis (±SDEV): mouse, 60 min
Method: Thus, the hemolytic activity for these bishydrazones was investigated against murine red blood cells (mRBCs).
Murine red blood cells (mRBCs) were prepared by suspending 1 mL of murine blood in 3 mL of PBS prior to centrifugation at 1,000 rpm for 5 min. The mRBCs were washed four times in PBS and resuspended in the same buffer to a final concentration of 10^7 mRBC/mL. […] The tubes were incubated at 37° C. for 60 min. […] Eppendorf tubes containing 200 μL of ddH2O and 2 μL of 1% v/v Triton™ X-100 served as negative (blank) and positive controls, respectively. The percentage of hemolysis was calculated using the following equation: % hemolysis=[(absorbance of sample)−(absorbance of blank)]×100/(absorbance of positive control).

[7] = test system: Candida krusei ATCC 6258 (strain I); test: MIC determination, in vitro antifungal assay (CLSI M27-A3); type: cell-based; conditions: MIC-0, 48 h at 35° C.
Summary of the method: as §2

[8] = test system: Candida glabrata ATCC 2001 (strain H); test: as above; type: cell-based; conditions: MIC-0, 48 h at 35° C.
Summary of the method: as §2

[9] = Aspergillus flavus, 48 h, read-out: MIC
[10] = Aspergillus nidulans, ATCC38163, 48 h, read-out: MIC
[11] = Candida albicans, 48 h, read-out: MIC
[12] = Pichia kudriavzevii, ATCC6258, 48 h, read-out: MIC
[13] = Nakaseomyces glabratus, ATCC2001, 48 h, read-out: MIC

| SMILES | MIC [1, 9] | MIC [2] | MIC [3, 10] | MIC [3] | MIC [4, 11] | MIC [4] | MIC [5, 11] | Percentage of hemolysis (±SDEV) ([6]; 0.975 μg/mL) | Percentage of hemolysis (±SDEV) ([6]; 1.95 μg/mL) | Percentage of hemolysis (±SDEV) ([6]; 3.9 μg/mL) | Percentage of hemolysis (±SDEV) ([6]; 7.8 μg/mL) | Percentage of hemolysis (±SDEV) ([6]; 15.6 μg/mL) | Percentage of hemolysis (±SDEV) ([6]; 31.3 μg/mL) | Percentage of hemolysis (±SDEV) ([6]; 62.5 μg/mL) | MIC [7, 12] | MIC [8, 13] | MIC [5] | MIC [7] | other results |
| --- | --- | --- | --- | --- | --- | --- | --- | --- | --- | --- | --- | --- | --- | --- | --- | --- | --- | --- | --- |
| Fc1ccc(N/N=C/c2ccc(-c3cccc(/C=N/Nc4ccc(F)cc4)c3)cc2)cc1 [Compound 17a] | 15.6 µg/mL (≈ 36.6 µM) | > 31.3 µg/mL | 1.95 to 3.9 µg/mL (≈ 4.57 to 9.14 µM) | 3.9 µg/mL (≈ 9.14 µM) | 1.95 to 3.9 µg/mL (≈ 4.57 to 9.14 µM) | 3.9 µg/mL (≈ 9.14 µM) | 7.8 µg/mL (≈ 18.3 µM) | 0% | 6.0 ± 2.1% | 4.3 ± 1.6% | 9.5 ± 3.3% | 9.9 ± 2.1% | 14.4 ± 0.9% | 26.1 ± 11.1% | > 31.3 µg/mL | > 31.3 µg/mL |  |  |  |
| Fc1ccc(N/N=C/c2ccc(-c3ccc(/C=N/Nc4ccc(F)cc4)cc3)cc2)cc1 [Compound 17b] | 7.8 to 15.6 µg/mL (≈ 18.3 to 36.6 µM) | > 31.3 µg/mL | 7.8 to 15.6 µg/mL (≈ 18.3 to 36.6 µM) | 7.8 µg/mL (≈ 18.3 µM) | 7.8 to 15.6 µg/mL (≈ 18.3 to 36.6 µM) | 7.8 µg/mL (≈ 18.3 µM) | 7.8 to 15.6 µg/mL (≈ 18.3 to 36.6 µM) | 0% | 1.1 ± 1.5% | 0.7 ± 1.1% | 3.2 ± 3.0% | 9.0 ± 8.5% | 9.6 ± 6.7% | 28.3 ± 4.1% | 1.95 µg/mL (≈ 4.57 µM) | 7.8 to 15.6 µg/mL (≈ 18.3 to 36.6 µM) | 7.8 µg/mL (≈ 18.3 µM) | 1.95 µg/mL (≈ 4.57 µM) | MIC [1]: 7.8 µg/mL (≈ 18.3 µM); MIC [8]: 15.6 µg/mL (≈ 36.6 µM) |
| C/C(=N\Nc1ccc(F)cc1)c1ccc(-c2ccc(/C(C)=N/Nc3ccc(F)cc3)cc2)cc1 [Compound 17c, 4,4′-bis((E)-1-(2-(4-fluorophenyl)hydrazono)ethyl)-1,1′-biphenyl] | > 31.3 µg/mL | > 31.3 µg/mL | 7.8 µg/mL (≈ 17.2 µM) |  | 7.8 µg/mL (≈ 17.2 µM) |  | 1.95 to 3.9 µg/mL (≈ 4.29 to 8.58 µM) | 1.4 ± 1.1% | 2.6 ± 0.9% | 2.6 ± 2.7% | 5.9 ± 0.3% | 7.4 ± 1.1% | 9.5 ± 2.2% | 26.2 ± 7.7% | 1.95 to 3.9 µg/mL (≈ 4.29 to 8.58 µM) | 15.6 µg/mL (≈ 34.3 µM) | 3.9 µg/mL (≈ 8.58 µM) | 1.95 µg/mL (≈ 4.29 µM) |  |
| Fc1ccc(N/N=C/c2ccc(-c3cccc(/C=N/Nc4ccc(F)cc4F)c3)cc2)c(F)c1 [Compound 20a] | 7.8 µg/mL (≈ 16.9 µM) | 31.3 µg/mL (≈ 67.7 µM) | 7.8 µg/mL (≈ 16.9 µM) |  | 7.8 µg/mL (≈ 16.9 µM) |  | 15.6 µg/mL (≈ 33.7 µM) | 0% | 4.5 ± 2.3% | 4.2 ± 2.8% | 8.6 ± 1.6% | 14.6 ± 1.6% | 14.6 ± 0.7% |  | 1.95 to 3.9 µg/mL (≈ 4.22 to 8.43 µM) | 15.6 µg/mL (≈ 33.7 µM) |  | 1.95 µg/mL (≈ 4.22 µM) | hemolytic activity (in words) [6]: lack of hemolytic activity |
